“Also recorded” adds a separate entry of the source.
Key:
M. avium = experiment: MIC of antibiotics by broth microdilution, M. avium strains of Examples 3 and 4; assay type: cell-based, Mycobacterium avium subsp. hominissuis; details: for minimum inhibitory concentrations (MICs) used for antibiotic plates: 7H10 agar plates for tissue CFU counts
Description: Susceptibility testing was conducted using broth microdilution single and twofold dilutions as described in the literature. Suspensions were prepared by swabs on a growth plate with a sterile cotton swab, or were prepared in broth culture. The growth was transferred to a 4.5 mL of phosphate buffer solution (PBS) until the turbidity matched the density of a 0.5 McFarland standard. Suspensions were then vigorously mixed on a vortex mixer for 15 to 20 seconds. The final inoculum was prepared to a bacterial density of 10^5. The tube was inverted 8-10 times to mix the suspension.
(§1) Following both the four-week and eight-week treatment period, mice were sacrificed, and lungs and spleens were harvested for CFU counts in each tissue and compared to CFUs recovered in the baseline and vehicle-treated groups. Tissue samples were plated with and without antibiotic on 7H10 agar. Antibiotic plates were made with minimum inhibitory concentrations (MICs) of 8 μg/ml for clarithromycin, and 0.25, μg/ml for both rifabutin (RFB) and clofazimine (CFZ). Plates were made for each of clarithromycin (CLR) alone, clarithromycin plus either rifabutin (CLR+RFB) or clofazimine (CLR+CFZ) and the three-drug combination (CLR+RFB+CFZ). All plates were incubated in a microbiological incubator at 37° C. for 14 days.

M. avium 104 biofilm = experiment: In vitro biofilm model of infection; assay type: cell-based, Mycobacterium avium subsp. hominissuis; details: mean ± SD; CLR 1.9-4.3 μg/mL, RFB 0.04 μg/mL, CFZ 0.0005 μg/mL
MAC bacteria = assay type: cell-based, Mycobacterium avium complex; details: 2×MIC; starting inoculum 5.5 log10 CFU/ml
Description: In vitro, efficacy was studied in static time-kill kinetics assays (at 2×minimum inhibitory concentration [MIC]), intended to mirror a desired peak serum concentration for all three antibiotics using an established assay. All experiments were performed with a starting inoculum of 5.5 log10 CFU/ml MAC bacteria, higher than the bacterial load expected in the airway secretions of patients with mild nodular-bronchiectatic disease due to MAC.

NTM = details: mouse models of systemic and lung infection; preclinical literature; cited from earlier work
MAC [1] = experiment: MIC of the MAC strains used in the HFS-MAC studies; assay type: cell-based, Mycobacterium avium complex; details: Mycobacterium avium
Description: The MAC strain used in the HFS-MAC studies was ATCC strain 700898. The study center also had 5 well-characterized clinical strains that have undergone whole-genome sequencing and habituation to the HFS-MAC. Stock cultures of MAC were stored at −80° C. in Middlebrook 7H9 broth with 10% OADC and 10% glycerol. THP-1 monocytes were stored in liquid nitrogen and have been habituated for the HFS-MAC growth conditions.

MAC [2] = experiment: Lung histopathology of mice infected with MAC and treated for four and eight weeks; assay type: in vivo, Mycobacterium avium complex; details: 32 sections per group
Text: Lung and Spleen Histopathology of Mice Infected with MAC and Treated with FDC Components Alone and in Combination for Four and Eight Weeks of Treatment
Each of the experimental group had eight cut examined from each lung (8×2 lungs=16×2 mice=32 sections). Lungs were normal and not showing any pathology at pre-infection.

[3] = 7-day mouse tolerability and PK study; details: for Cavg (rifabutin) / Cavg (clarithromycin): AUCtlast/24 h; for Tmax / AUC(0-t) / Cmax: female, C57BL/6, mouse, po
Description: Sixty (60) female mice were tested, 12 per treatment groups: […]

[4] = system: intracellular MAC in THP-1 monocytes; experiment: Hollow fiber system model of MAC (HFS-MAC): microbial kill; assay type: cell-based, Mycobacterium avium complex; details: HF experiments
Description: The anti-mycobacterial effects of CLR, CFZ, and RFB was evaluated in the hollow fiber system model of MAC (HFS-MAC), which recapitulates the intrapulmonary concentrations of these antibiotics. The HFS-MAC allows for an assessment of the contribution of individual drug components in terms of anti-mycobacterial effects and enables exploration of potential synergy, additivity, or antagonism of different doses of drugs and combination regimens on the log-phase growth of intracellular MAC, for both microbial kill and resistance suppression.
A two-part investigation was conducted to assess the contribution of components of various FDC products comprising CLR, CFZ, and RFB in terms of depth and rate of MAC kill and suppression of the emergence of resistance. The anti-MAC activity of each antibiotic component was evaluated as one-drug alone; as two-drug combinations and the three-drug combination. For each combination (singlet, doublet or triplet), the drug concentrations were sampled from the HF fluid bathing MAC-infected cells. […] Anti-MAC activity was evaluated by kill slopes defined as the kill rate constant (and the half-life of kill [reciprocal of the kill rate constant]) as well as the maximum kill, defined as the maximum reduction in MAC CFUs and compared between the different antibiotic combinations.
MAC was grown into log-phase for 4 days, parallel with cultivation of THP-1 monocytes. The THP-1 cells were then infected with MAC overnight at a multiplicity of infection of 1:1. The THP-1 cells were washed to remove extracellular bacteria, and 20 mL of 1×10^6 (6.0 log10) cells/mL were inoculated into each HFS-MAC on Study Day 0. The peripheral compartment is the abluminal hollow fibers space that is also enclosed by the plastic, while the intraluminal space and flow path form the central compartment. […]

[5] = epithelial lining fluid to total plasma/serum; cited from earlier work
M. avium strain 104 = experiment: Mouse lung infection model, clarithromycin sensitive strain; assay type: in vivo, Mycobacterium avium subsp. hominissuis; details: for reduction in CFU relative to vehicle: 50 mg/kg
Description: as §1

[6] = ATCC700898, MAC (ATCC 700898), laboratory strain

Compound: CO[C@H]1/C=C/O[C@@]2(C)Oc3c(C)c(O)c4c(c3C2=O)C2=NC3(CCN(CC(C)C)CC3)NC2=C(NC(=O)/C(C)=C\C=C\[C@H](C)[C@H](O)[C@@H](C)[C@@H](O)[C@@H](C)[C@H](OC(C)=O)[C@@H]1C)C4=O [Rifabutin, rifabutin]
- minimum inhibitory concentrations (MICs) used for antibiotic plates (M. avium): 0.25 µg/mL
- Colony Forming Unit Concentration, Four Days (M. avium 104 biofilm): 1.41 ± 0.5 × 10^7 CFU/mL
- Colony Forming Unit Concentration, Seven Days (M. avium 104 biofilm): 1.64 ± 0.3 × 10^7 CFU/mL
- activity as single drugs (MAC bacteria): bacteriostatic activity
- Effective Dose (NTM): 10 mg/kg/day
- MIC (MAC [1]; [6]): 0.0625 µg/mL
- MIC (MAC [1]; Clinical strain #1): 0.125 µg/mL
- MIC (MAC [1]; Clinical strain #2): 0.125 µg/mL
- MIC (MAC [1]; Clinical strain #3): 0.125 µg/mL
- MIC (MAC [1]; Clinical strain #4): 2 µg/mL
- MIC (MAC [1]; Clinical strain #5): 0.125 µg/mL
- Lung Histopathology Findings (MAC [2]): Diffuse congestion; also recorded: Infiltrates of lymphocytes are also observed in multiple locations
- Cavg (rifabutin) ([3]; Day 7, RFB 20 mg/kg alone): 1,117 ng/mL
- Cavg (rifabutin) ([3]; Day 7, RFB 60 mg/kg alone): 2,558 ng/mL
- Cavg (rifabutin) ([3]; Day 7, RFB 60 mg/kg with CLR 200 mg/kg and CFZ 30 mg/kg): 4,541 ng/mL
- Tmax ([3]; in vivo, 20 mg/kg): 1 h
- AUC(0-t) ([3]; in vivo, 20 mg/kg, AUCtlast (rifabutin), Day 1, RFB 20 mg/kg alone, oral, mouse plasma): 22100 ng·h/mL
- AUC(0-t) ([3]; in vivo, 20 mg/kg, AUCtlast (rifabutin), Day 7, RFB 20 mg/kg alone, oral once daily, mouse plasma): 26800 ng·h/mL
- Cmax ([3]; in vivo, 20 mg/kg, Cmax (rifabutin), Day 1, RFB 20 mg/kg alone, oral, mouse plasma): 2310 ng/mL
- Cmax ([3]; in vivo, 20 mg/kg, Cmax (rifabutin), Day 7, RFB 20 mg/kg alone, oral once daily, mouse plasma): 3140 ng/mL
- Tmax ([3]; in vivo, 60 mg/kg): 1 h
- AUC(0-t) ([3]; in vivo, 60 mg/kg, AUCtlast (rifabutin), Day 1, RFB 60 mg/kg alone, oral, mouse plasma): 60200 ng·h/mL
- AUC(0-t) ([3]; in vivo, 60 mg/kg, AUCtlast (rifabutin), Day 1, RFB 60 mg/kg with CLR 200 mg/kg and CFZ 30 mg/kg, oral, mouse plasma): 60400 ng·h/mL
- AUC(0-t) ([3]; in vivo, 60 mg/kg, AUCtlast (rifabutin), Day 7, RFB 60 mg/kg alone, oral once daily, mouse plasma): 61400 ng·h/mL
- AUC(0-t) ([3]; in vivo, 60 mg/kg, AUCtlast (rifabutin), Day 7, RFB 60 mg/kg with CLR 200 mg/kg and CFZ 30 mg/kg, oral once daily, mouse plasma): 109000 ng·h/mL
- Cmax ([3]; in vivo, 60 mg/kg, Cmax (rifabutin), Day 1, RFB 60 mg/kg alone, oral, mouse plasma): 5650 ng/mL
- Cmax ([3]; in vivo, 60 mg/kg, Cmax (rifabutin), Day 1, RFB 60 mg/kg with CLR 200 mg/kg and CFZ 30 mg/kg, oral, mouse plasma): 5300 ng/mL
- Cmax ([3]; in vivo, 60 mg/kg, Cmax (rifabutin), Day 7, RFB 60 mg/kg alone, oral once daily, mouse plasma): 5760 ng/mL
- Cmax ([3]; in vivo, 60 mg/kg, Cmax (rifabutin), Day 7, RFB 60 mg/kg with CLR 200 mg/kg and CFZ 30 mg/kg, oral once daily, mouse plasma): 5720 ng/mL
- effect on CFUs / MAC killing, summary [4]: CFU counts increased

Compound: CO[C@H]1/C=C/O[C@@]2(C)Oc3c(C)c(O)c4c(O)c(c(/C=N/N5CCN(C)CC5)c(O)c4c3C2=O)NC(=O)/C(C)=C\C=C\[C@H](C)[C@H](O)[C@@H](C)[C@@H](O)[C@@H](C)[C@H](OC(C)=O)[C@@H]1C [rifampin]
- ELF:plasma ratio [5]: approximately 0.34

Compound: CC[C@H]1OC(=O)[C@H](C)[C@@H](O[C@H]2C[C@@](C)(OC)[C@@H](O)[C@H](C)O2)[C@H](C)[C@@H](O[C@@H]2O[C@H](C)C[C@H](N(C)C)[C@H]2O)[C@](C)(OC)C[C@@H](C)C(=O)[C@H](C)[C@@H](O)[C@]1(C)O [Clarithromycin, clarithromycin]
- minimum inhibitory concentrations (MICs) used for antibiotic plates (M. avium): 8 µg/mL
- MIC (M. avium; Mycobacterium avium, clarithromycin resistant sub-subpopulation, 23 S RNA gene mutation): > 128 µg/mL
- Colony Forming Unit Concentration, Four Days (M. avium 104 biofilm): 1.35 ± 0.3 × 10^7 CFU/mL
- Colony Forming Unit Concentration, Seven Days (M. avium 104 biofilm): 1.07 ± 0.3 × 10^7 CFU/mL
- activity as single drugs (MAC bacteria): bacteriostatic activity
- Effective Dose (NTM): 50 to 100 mg/kg/day
- MIC (MAC [1]; [6]): 0.25 µg/mL
- MIC (MAC [1]; Clinical strain #1): 0.125 µg/mL
- MIC (MAC [1]; Clinical strain #2): 0.5 µg/mL
- MIC (MAC [1]; Clinical strain #3): 32 µg/mL
- MIC (MAC [1]; Clinical strain #4): 0.25 µg/mL
- MIC (MAC [1]; Clinical strain #5): 0.125 µg/mL
- ELF:plasma ratio [5]: 3.4-7.8
- reduction in CFU relative to vehicle (M. avium strain 104; after eight weeks of treatment): ~2 log unit
- reduction in CFU relative to vehicle (M. avium strain 104; after four weeks of treatment): approximately 1 log unit
- CFUs resistant to clarithromycin in one animal (M. avium strain 104; clarithromycin monotherapy treatment): 200 CFUs
- Lung Histopathology Findings (MAC [2]): Diffuse congestion; bacteria in granulomas
- Cavg (clarithromycin) ([3]; Day 7, CLR 100 mg/kg alone): 729 ng/mL
- Cavg (clarithromycin) ([3]; Day 7, CLR 200 mg/kg alone): 1,425 ng/mL
- Cavg (clarithromycin) ([3]; Day 7, CLR 200 mg/kg with RFB 60 mg/kg and CFZ 30 mg/kg): 2,704 ng/mL
- AUC(0-t) ([3]; plasma, 100 mg/kg, AUCtlast (clarithromycin), Day 1, CLR 100 mg/kg alone, oral, mouse plasma): 11100 ng·h/mL
- AUC(0-t) ([3]; plasma, 100 mg/kg, AUCtlast (clarithromycin), Day 7, CLR 100 mg/kg alone, oral once daily, mouse plasma): 17500 ng·h/mL
- Cmax ([3]; plasma, 100 mg/kg, Cmax (clarithromycin), Day 1, CLR 100 mg/kg alone, oral, mouse plasma): 3400 ng/mL
- Cmax ([3]; plasma, 100 mg/kg, Cmax (clarithromycin), Day 7, CLR 100 mg/kg alone, oral once daily, mouse plasma): 6130 ng/mL
- Tmax ([3]; plasma, 100 mg/kg, tmax (clarithromycin), Day 1, CLR 100 mg/kg alone, oral, mouse plasma): 1 h
- Tmax ([3]; plasma, 100 mg/kg, tmax (clarithromycin), Day 7, CLR 100 mg/kg alone, oral once daily, mouse plasma): 1 h
- AUC(0-t) ([3]; plasma, 200 mg/kg, AUCtlast (clarithromycin), Day 1, CLR 200 mg/kg alone, oral, mouse plasma): 36200 ng·h/mL
- AUC(0-t) ([3]; plasma, 200 mg/kg, AUCtlast (clarithromycin), Day 1, CLR 200 mg/kg with RFB 60 mg/kg and CFZ 30 mg/kg, oral, mouse plasma): 44200 ng·h/mL
- AUC(0-t) ([3]; plasma, 200 mg/kg, AUCtlast (clarithromycin), Day 7, CLR 200 mg/kg alone, oral once daily, mouse plasma): 34200 ng·h/mL
- AUC(0-t) ([3]; plasma, 200 mg/kg, AUCtlast (clarithromycin), Day 7, CLR 200 mg/kg with RFB 60 mg/kg and CFZ 30 mg/kg, oral once daily, mouse plasma): 64900 ng·h/mL
- Cmax ([3]; plasma, 200 mg/kg, Cmax (clarithromycin), Day 1, CLR 200 mg/kg alone, oral, mouse plasma): 9110 ng/mL
- Cmax ([3]; plasma, 200 mg/kg, Cmax (clarithromycin), Day 1, CLR 200 mg/kg with RFB 60 mg/kg and CFZ 30 mg/kg, oral, mouse plasma): 8370 ng/mL
- Cmax ([3]; plasma, 200 mg/kg, Cmax (clarithromycin), Day 7, CLR 200 mg/kg alone, oral once daily, mouse plasma): 7430 ng/mL
- Cmax ([3]; plasma, 200 mg/kg, Cmax (clarithromycin), Day 7, CLR 200 mg/kg with RFB 60 mg/kg and CFZ 30 mg/kg, oral once daily, mouse plasma): 10100 ng/mL
- Tmax ([3]; plasma, 200 mg/kg, tmax (clarithromycin), Day 1, CLR 200 mg/kg alone, oral, mouse plasma): 1 h
- Tmax ([3]; plasma, 200 mg/kg, tmax (clarithromycin), Day 1, CLR 200 mg/kg with RFB 60 mg/kg and CFZ 30 mg/kg, oral, mouse plasma): 1 h
- Tmax ([3]; plasma, 200 mg/kg, tmax (clarithromycin), Day 7, CLR 200 mg/kg alone, oral once daily, mouse plasma): 1 h
- Tmax ([3]; plasma, 200 mg/kg, tmax (clarithromycin), Day 7, CLR 200 mg/kg with RFB 60 mg/kg and CFZ 30 mg/kg, oral once daily, mouse plasma): 1 h
- effect on CFUs / MAC killing, summary [4]: reductions in colony forming units
